# According to US20220160617A1, “COMPOSITIONS AND METHODS FOR IMPROVING SKIN HEALTH AND FOR THE TREATMENT AND PREVENTION OF DISEASES, DISORDERS AND CONDITIONS ASSOCIATED WITH PATHOGENIC MICROBES” (DermBiont, Inc., priority 2019, published 2022):
# Where a SMILES comes first, the peptide text is derived from it. Bridges are numbered along the chain shown (N, C = ends). [ ]: non-standard residue; d: D form. The star is where a group is joined. Ileψ(thiazoline)Cys = CC[C@H](C)[C@H](N)C1=N[C@H](C(=O)*)CS1; dOrn = NCCC[C@@H](N)C(=O)O
# Tested on: Janthinobacterium lividum strains
# Test: Antibiotic MIC tests, sensitivity summary
# Assay type: cell-based
# Conditions: not given
# Experimental: The antibiotic resistance profile and MICs tests were performed using Janthinobacterium lividum grown from cultures purified and grown in vegitone LB broth.
row,Molecule,sensitivity of Janthinobacterium lividum strains to antibiotic
1,CC[C@H](C)[C@H](N)C1=N[C@H](C(=O)N[C@@H](CC(C)C)C(=O)N[C@H](CCC(=O)O)C(=O)N[C@H](C(=O)N[C@H]2CCCCNC(=O)[C@H](CC(N)=O)NC(=O)[C@@H](CC(=O)O)NC(=O)[C@H](Cc3cnc[nH]3)NC(=O)[C@@H](Cc3ccccc3)NC(=O)[C@H]([C@@H](C)CC)NC(=O)[C@@H](CCCN)NC2=O)[C@@H](C)CC)CS1 [Bacitracin] ({Ileψ(thiazoline)Cys}-L[dE]IK[dOrn]I[dF]H[dD]N; lactam 4-C),resistant

# Tested on: E. Coli ATCC25922
# Test: not given
# Conditions: cited from earlier work
row,Molecule,"MIC, CLSI QC ranges [µg/mL]"
1,NCC[C@H](O)C(=O)N[C@@H]1C[C@H](N)[C@@H](O[C@H]2O[C@H](CN)[C@@H](O)[C@H](O)[C@H]2O)[C@H](O)[C@H]1O[C@H]1O[C@H](CO)[C@@H](O)[C@H](N)[C@H]1O [Amikacin],0.5 to 4
2,CO/N=C(\C(=O)N[C@@H]1C(=O)N2C(C(=O)O)=C(CSc3nc(=O)c(=O)[nH]n3C)CS[C@H]12)c1csc(N)n1 [Ceftriaxone],0.03 to 0.12

# Tested on: Janthinobacterium lividum strains
# Test: Internal antibiotic resistance test (BD BBL Sensi-Disc zone of inhibition)
# Assay type: cell-based
# Conditions: all 5 strains; disc content per antibiotic
# Experimental: One Janthinobacterium lividum colony of 3-day old grown in 50% BHI agar was mixed well in 1 ml of 1×PBS buffer, diluted 10× and 100×, respectively. 200 μl of diluted Janthinobacterium lividum cells were evenly plated onto R2A/BHI agar plates in triplicate in 150 mm petri dishes. Antibiotic discs (BD BBL Sensi-Disc antimicrobial susceptibility test discs) were dispensed using a Disc dispenser (BD BBL Sensi-Disc Designer Dispenser System, 12-Place). Plates were incubated for 2-3 days at room temperature and imaged at the end of incubation.
# The sensitivity of Janthinobacterium lividum to antibiotics is reflected by a clear zone of inhibition of Janthinobacterium lividum cells surrounding the antibiotic discs. The zone of inhibition was measured using ImageJ and was transformed into cm for analysis.
row,Molecule,sensitivity of Janthinobacterium lividum to antibiotic disc
1,CC1(C)S[C@@H]2[C@H](NC(=O)[C@H](N)c3ccccc3)C(=O)N2[C@H]1C(=O)O [ampicillin],sensitive
2,CC(=O)OCC1=C(C(=O)O)N2C(=O)[C@@H](NC(=O)Cc3cccs3)[C@H]2SC1 [cephalothin],sensitive
3,[H]/N=C(/N)N[C@H]1[C@H](O)[C@@H](O)[C@H](O[C@@H]2O[C@@H](C)[C@](O)(C=O)[C@H]2O[C@@H]2O[C@@H](CO)[C@H](O)[C@@H](O)[C@@H]2NC)[C@@H](N/C(N)=N\[H])[C@@H]1O [streptomycin],sensitive
4,penicillin,sensitive
5,CN[C@H](CC(C)C)C(=O)N[C@H]1C(=O)N[C@@H](CC(N)=O)C(=O)N[C@H]2C(=O)N[C@H]3C(=O)N[C@H](C(=O)N[C@H](C(=O)O)c4cc(O)cc(O)c4-c4cc3ccc4O)[C@H](O)c3ccc(c(Cl)c3)Oc3cc2cc(c3O[C@@H]2O[C@H](CO)[C@@H](O)[C@H](O)[C@H]2O[C@H]2C[C@](C)(N)[C@H](O)[C@H](C)O2)Oc2ccc(cc2Cl)[C@H]1O [vancomycin],sensitive
6,O=C(O)c1cn(C2CC2)c2cc(N3CCNCC3)c(F)cc2c1=O [Ciprofloxacin],sensitive
7,CC[C@H]1OC(=O)[C@H](C)[C@@H](O[C@H]2C[C@@](C)(OC)[C@@H](O)[C@H](C)O2)[C@H](C)[C@@H](O[C@@H]2O[C@H](C)C[C@H](N(C)C)[C@H]2O)[C@](C)(O)C[C@@H](C)C(=O)[C@H](C)[C@@H](O)[C@]1(C)O [Erythromycin],sensitive

# Tested on: fungal or bacterial pathogens
# Test: not given
# Assay type: cell-based
# Conditions: not given
row,Molecule,Concentration Range of Efficacy [mM]
1,O=[N+]([O-])O [Nitrate],0.1 to 1
2,O=NO [Nitrite],0.1 to 1

# Same assay, conditions: components for enhancing function of human-derived Janthinobacterium lividum
row,Molecule,Concentration Range of Efficacy [mM]
1,CO[C@@H]1O[C@H](C(=O)O)[C@@H](O)[C@H](O)[C@H]1O [β-Methyl-D-Glucuronic Acid],1 to 5
2,OC[C@@H](O)[C@@H](O)CO [i-Erythritol],1 to 5
3,OC[C@@H](O)[C@H](O)[C@H](O)[C@@H](O)CO [Dulcitol],2 to 20
4,OC[C@H]1O[C@H](OCC2O[C@@H](O)[C@H](O)[C@@H](O)[C@@H]2O)[C@H](O)[C@@H](O)[C@H]1O (stereo partly drawn) [D-Melibiose],2 to 20
5,O=C(O)[C@H](O)[C@@H](O)C(=O)O [L-Tartaric acid],1 to 5
6,dextrin,1 to 5
7,OC[C@H]1O[C@@H]2O[C@H]3[C@H](O)[C@@H](O)[C@@H](O[C@H]4[C@H](O)[C@@H](O)[C@@H](O[C@H]5[C@H](O)[C@@H](O)[C@@H](O[C@H]6[C@H](O)[C@@H](O)[C@@H](O[C@H]7[C@H](O)[C@@H](O)[C@@H](O[C@H]1[C@H](O)[C@H]2O)O[C@@H]7CO)O[C@@H]6CO)O[C@@H]5CO)O[C@@H]4CO)O[C@@H]3CO [α-Cyclodextrin],1 to 5
8,CO[C@@H]1O[C@H](CO)[C@@H](O)[C@H](O)[C@H]1O [β-Methyl-D-Glucoside],2 to 20
9,OC[C@@H](O)C(O)[C@H](O)CO [D-Arabitol],1 to 5
10,NC(N)=O [Urea],0.1 to 1
11,Chondroitin Sulfate C,1 to 5
12,Glycogen,1 to 5
13,O=C(O)[C@@H](O)[C@H](O)C(=O)O [D-Tartaric acid],1 to 5
14,OC[C@H]1O[C@H](OC[C@H]2OC(O)(CO)[C@@H](O)[C@@H]2O)[C@H](O)[C@@H](O)[C@@H]1O (some centres unmarked) [Palatinose],1 to 5
15,O=P(O)(O)O[C@H]1O[C@H](CO)[C@@H](O)[C@H](O)[C@H]1O [D-Glucose-1-Phosphate],2 to 20
16,OC[C@H]1O[C@@H]2O[C@H]3[C@H](O)[C@@H](O)[C@@H](O[C@H]4[C@H](O)[C@@H](O)[C@@H](O[C@H]5[C@H](O)[C@@H](O)[C@@H](O[C@H]6[C@H](O)[C@@H](O)[C@@H](O[C@H]7[C@H](O)[C@@H](O)[C@@H](O[C@H]8[C@H](O)[C@@H](O)[C@@H](O[C@H]1[C@H](O)[C@H]2O)O[C@@H]8CO)O[C@@H]7CO)O[C@@H]6CO)O[C@@H]5CO)O[C@@H]4CO)O[C@@H]3CO [β-Cyclodextrin],1 to 5
17,O=C(CO)[C@@H](O[C@H]1O[C@H](CO)[C@@H](O)[C@H](O)[C@H]1O)[C@H](O)[C@H](O)CO [Turanose],1 to 5
18,Inulin,1 to 5
19,Nc1ncnc2c1ncn2C1CC(O)C(CO)O1 (centres unmarked) [2-Deoxy Adenosine],2 to 20
20,"O=P(O)(O)OCC(O)CO (racemic) [D,L-α-Glycerol Phosphate]",2 to 20
21,Laminarin,1 to 5
22,OC[C@H]1O[C@@H]2O[C@H]3[C@H](O)[C@@H](O)[C@@H](O[C@H]4[C@H](O)[C@@H](O)[C@@H](O[C@H]5[C@H](O)[C@@H](O)[C@@H](O[C@H]6[C@H](O)[C@@H](O)[C@@H](O[C@H]7[C@H](O)[C@@H](O)[C@@H](O[C@H]8[C@H](O)[C@@H](O)[C@@H](O[C@H]9[C@H](O)[C@@H](O)[C@@H](O[C@H]1[C@H](O)[C@H]2O)O[C@@H]9CO)O[C@@H]8CO)O[C@@H]7CO)O[C@@H]6CO)O[C@@H]5CO)O[C@@H]4CO)O[C@@H]3CO [g-Cyclodextrin],1 to 5

row,Molecule,Concentration Range of Efficacy [mM]
1,CO[C@H]1O[C@H](CO)[C@@H](O)[C@H](O)[C@H]1O [α-Methyl-D-Glucoside],1 to 5
2,OC[C@H]1O[C@H](OC[C@H]2O[C@H](OC[C@H]3O[C@H](O[C@]4(CO)O[C@H](CO)[C@@H](O)[C@@H]4O)[C@H](O)[C@@H](O)[C@@H]3O)[C@H](O)[C@@H](O)[C@H]2O)[C@H](O)[C@@H](O)[C@H]1O [Stachyose],1 to 5
3,Mannan,1 to 5
4,Maltotriose,2 to 20
5,OC[C@@H](O)[C@@H](O[C@H]1O[C@H](CO)[C@@H](O)[C@H](O)[C@H]1O)[C@H](O)[C@@H](O)CO [Maltitol],1 to 5
6,COC1OCC(O)C(O)C1O [β-Methyl-D-Xyloside],1 to 5
7,N[C@@H](C(=O)O)[C@@H](O)[C@H](O)[C@H](O)CO [D-Glucosaminic Acid],2 to 20
8,Pectin,1 to 5
9,"CC(O)CO (centres unmarked) [1,2-Propanediol]",2 to 20
10,"CC(O)C(N)=O (racemic) [D,L-Lactamide]",0.1 to 1
11,OC[C@H](O)C(O)[C@@H](O)CO [L-Arabitol],1 to 5
12,O=C1CCC(C(=O)O)O1 (stereo not drawn) [α-Hydroxy Glutaric Acid-g-Lactone],2 to 20
13,OC[C@H]1O[C@@](CO)(O[C@H]2O[C@H](CO)[C@@H](O)[C@H](O)[C@H]2O)[C@@H](O[C@H]2O[C@H](CO)[C@@H](O)[C@H](O)[C@H]2O)[C@@H]1O [D-Melezitose],1 to 5
14,O=C(O)[C@H]1OC(O)[C@H](O)[C@@H](O)[C@@H]1O (stereo partly drawn) [D-Glucoronic Acid],2 to 20
15,OC[C@H]1O[C@@H](O[C@H]2[C@H](O)[C@@H](O)[C@H](O)O[C@@H]2CO)[C@H](O)[C@@H](O)[C@@H]1O [D-Cellobiose],2 to 20
16,O=CC[C@H](O)[C@H](O)CO [2-Deoxy-DRibose],1 to 5
17,CO[C@@H]1O[C@H](CO)[C@@H](O)[C@H](O)[C@H]1O [β-Methyl-D-Galactoside],1 to 5
18,C[C@H](N)C(=O)N[C@@H](CCC(=O)O)C(=O)O [Ala-Glu] (H-Ala-Glu-OH),0.1 to 1
19,O=C[C@@H](O)[C@H](O[C@@H]1O[C@H](CO)[C@H](O)[C@H](O)[C@H]1O)[C@H](O)CO [3-0-β-D-Galactopyranosyl-D Arabinose],1 to 5
20,COC1OC(CO)C(O)C(O)C1O [α-Methyl-D-Galactoside],2 to 20
21,OC[C@@]12OC[C@@H](O1)[C@@H](O)[C@@H](O)[C@@H]2O [Sedoheptulosan],1 to 5
22,COC1OC(CO)C(O)C(O)C1O [α-Methyl-D-Mannoside],1 to 5
